In patent US7910626B2, “Use of S1P receptor agonists in heart diseases” (Novartis AG, priority 2002, dated 2011):

Key:
[1] = Acute toxicity p.o. in monkeys; settings: monkey, in vivo, po
Method: (§1) S1P receptor agonists are well tolerated at dosages required for use in accordance with the present invention. For example, FTY720 has an acute LD50 >10 mg/kg p.o. in rats and monkeys.

[2] = Acute toxicity p.o. in rats; settings: rat, in vivo, po
Method: as §1

chronic heart failure = assay: Chronic heart failure in rabbits after large myocardial infarction; type: in vivo; settings: heart failure induced by large myocardial infarction, i.v. at a dose of from 0.1 to 10 mg/kg
Method: The effect of a S1P receptor agonist, e.g. a compound of formula I on chronic heart failure is tested in rabbits where heart failure is induced as a consequence of a large myocardial infarction (R P. Hof et al. J. Cardiovasc. Pharmacol., 1991, 18,361-368). The changes of atrial natriuretic factor or baroflex sensitivity are a reliable indicator of the status of the heart failure in this animal model.

Compound: CCCCCCCCc1ccc(CCC(N)(CO)CO)cc1 [Compound A, 2-amino-2-[2-(4-octylphenyl)ethyl]propane-1,3-diol]
- LD50 [1]: > 10 mg/kg
- LD50 [2]: > 10 mg/kg
- effect on the heart failure (chronic heart failure): beneficial effect
